From patent publication US12527773B2, “Flavi-block: a pan-flavivirus inhibitor” (Baden-Württemberg Stiftung GmbH, priority 2020, dated 2026)
Where a name gives a salt, the structure may show the parent alone.

Columns and labels:
DENV capsid protein = biological target: T1, DENV capsid protein (Dengue virus type 2, UniProt P29990); test: Crosslinking of recombinant DENV capsid protein (Western blot); format: biochemical
T1 construct: recombinant DENV capsid protein; made in house; host or cells: E. coli
From the text: (§1) DSS was included as a positive control.

[1] = system: VP1 polyomavirus, LP1 HPV16, p24 HIV, BSA, GFP; test: Specificity in the cross-linking assay: other capsid and non-related proteins; format: biochemical
Procedure: as §1
To study the specificity of C10, capsid proteins of other viruses (VP1 polyomavirus, LP1 HPV16, and p24 HIV) as well as non-related proteins (BSA, GFP), were incubated in the so-called cross-linking assay, with DSS or C10.

HCV = test: IC50 against HCV, RLuc reporter virus, re-infection of naïve Huh7.5 cells; format: cell-based, Hepatitis C virus; conditions: serial dilutions 20 to 0.0024 μM
Procedure: Concerning the SAR studies, 45 C10 derivatives were designed and synthesized, which were tested regarding both their antiviral activity against HCV and DENV, as well as their cytotoxicity. For the activity test, a construct including the viral genome and the reporter gene RLuc was used.
Huh7.5 cells were electroporated with the corresponding RNA, seeded in 96-well plate and treated during 24/48 h with C10 and the different compounds. The supernatant of virus-producing cells was used to re-infect naïve Huh7.5 cells, which were then lysed and their RLuc signal measured.

Huh7.5 cells = test: SAR test of C10 derivatives: cytotoxicity (CellTiterGlo); conditions: 48 h
[2] = system: hematopoietic stem cell formation; test: Effect on zebrafish hematopoietic stem cell formation (in situ runx-1+c-myb); format: in vivo; conditions: 36 hpf
Procedure: Zebrafish embryos were exposed 20-30 min after fertilization to differing concentrations of the compounds C10 and D1 (5 μM; 15 μM; 25 μM) or to medium containing the corresponding solvent (DMSO) concentration. Therefore, 3-5 embryos were sorted into each of three wells of a 96 well plate containing 200 μl of medium. For phenotype analysis, triplicates were imaged after 6-7 h post fertilization (hpf) at approximately shield stage, after 24 hpf and after 48 hpf. Dead +unfertilized embryos were removed. For imaging at 24 hpf +48 hpf; embryos were anesthetized using MESAB. (A) Diagramm showing the percentage of embryos at each time point either developing normal (blue color) or with the indicated phenotype. (B) representative images of embryos treated with the indicated compounds, or controls at the respective time points. (C) To additionally elucidate the influence on hematopoietic stem cell formation, approx. half of the embryos were sampled at 36 hpf and an in situ staining for runx-1+c-myb was performed. Shown are representative images of hematopoietic stem cell formation with the treatment indicated.
Embryos were exposed 20-30 min after fertilization to differing concentrations of the compounds C10 and D1 (5 μM; 15 μM; 25 μM) or to medium containing the corresponding solvent (DMSO) concentration. […]

[3] = Metabolic stability in mouse liver microsomes; conditions: male, Balb/c, mouse, microsomes, pH 7.4
Procedure: Microsomal incubations were carried out in 96-well plates in 5 aliquots of […] each (one for each time point). […] Control incubations were performed replacing the NADPH-cofactor system with PBS. […] Incubations were performed in duplicates. Five time points over 40 minutes had been analyzed. The reactions were stopped by adding 12 volumes of 90% acetonitrile-water to incubation aliquots, followed by protein sedimentation by centrifuging at 5500 rpm for 3 minutes. […]. Supernatants were analyzed using the HPLC system coupled with tandem mass spectrometer.
The elimination constant (kel), half-life (t½) and intrinsic clearance (Clint) were determined in plot of In(AUC) versus time, using linear regression analysis (In order to indicate the quality of the linear regression analysis, the R (correlation coefficient) values are provided. In some cases, the last time point is excluded from the calculations to ensure acceptable logarithmic linearity of decay): […]

in vitro = conditions: for % Remain. Mean: mouse plasma, 1 μM, 37° C.
Procedure: Plasma stability is defined as the percentage of parent compound remaining in plasma over the time.
Incubations were carried out in 5 aliquots of 70 μL each (one for each time point), in duplicates. Test compounds (1 μM, final DMSO concentration 1%) were incubated at 37° C. with shaking at 100 rpm. Five time points over 120 minutes have been analyzed. The reactions were stopped by adding 420 μL of acetonitrile-water mixture (90:10) with subsequent plasma proteins sedimentation by centrifuging at 5500 rpm for 5 minutes. Supernatants were analyzed by the HPLC system coupled with tandem mass spectrometer. The percentage of the test compounds remaining after incubation in plasma and their half-lives (T1/2) were calculated.

Compound: O=C(CCCCCCC(=O)ON1C(=O)CCC1=O)ON1C(=O)CCC1=O [DSS, disuccinimidyl suberate, reference compound]
- effect on oligomerization state of DENV capsid protein (DENV capsid protein): stabilizes mainly the dimer
- crosslinking effect on other capsid and non-related proteins [1]: clear effect of monomer consumption and dimer formation

Compound: CCN1/C(=C/C(C)=C/c2sc3cc(NC(C)=O)ccc3[n+]2CC)Sc2cc(NC(C)=O)ccc21 [compound 46, 6-acetamido-2-((1E,3E)-3-(6-acetamido-3-ethylbenzo[d]thiazol-2(3H)-ylidene)-2-methylprop-1-en-1-yl)-3-ethylbenzo[d]thiazol-3-ium iodide]
- potency relative to C10 (IC50 against HCV) (HCV): 1.5 times
- cytotoxicity (Huh7.5 cells): not cytotoxic at the concentrations in which they are antiviral

Compound: CC(=O)Nc1ccc2c(c1)S/C(=C\C=C\c1sc3cc(NC(C)=O)ccc3[n+]1C)N2C [compound 45, 6-acetamido-2-((1E,3E)-3-(6-acetamido-3-methylbenzo[d]thiazol-2(3H)-ylidene)prop-1-en-1-yl)-3-methylbenzo[d]thiazol-3-ium iodide]
- potency relative to C10 (IC50 against HCV) (HCV): 2.5 times
- cytotoxicity (Huh7.5 cells): not cytotoxic at the concentrations in which they are antiviral

Compound: CCN1/C(=C/C=C/c2sc3cc(N)ccc3[n+]2CC)Sc2cc(N)ccc21.[I-] [D1, 6-amino-2-[(1E)-3-[(2Z)-6-amino-3-ethyl-2,3-dihydro-1,3-benzothiazol-2-ylidene]prop-1-en-1-yl]-3-ethyl-1,3-benzothiazol-3-ium iodide]
- hematopoietic stem cell formation [2]: no difference to the WT embryos

Compound: CC(C)NCC(O)COc1cccc2ccccc12 (racemic) [Propranolol, (+,−) Propranolol hydrochloride, reference compound]
- half-life at 2 mM [3]: 53.9 min

Compound: CC(C)[N+](C)(CCOC(=O)C1c2ccccc2Oc2ccccc21)C(C)C [Propantheline, Propantheline bromide, reference compound]
- % Remain. Mean (in vitro; 0 min): 100%
- % Remain. Mean (in vitro; 20 min): 66%
- % Remain. Mean (in vitro; 40 min): 29%
- % Remain. Mean (in vitro; 60 min): 13%
- % Remain. Mean (in vitro; 120 min): 2%
- half-life at 1 μM (in vitro; mouse, plasma): 20 min
